Laboratory results from US4202979A, “6-Ethyl(or allyl)-8-methoxymethyl or methylmercaptomethylergolines and related compounds” (priority 1979, dated 1980).
Where a name gives a salt, the structure may show the parent alone. Read-outs that look alike come from different tables or passages of the source.

What was measured:
[1] = background; cited from earlier work
prolactin [2] = conditions: literature; cited from earlier work
dopamine receptor = conditions: literature; cited from earlier work
Parkinsonism = conditions: literature; cited from earlier work
dopamine receptors = experiment: inhibition of high affinity binding of tritiated dopamine to dopamine receptors in membranes from striatal synaptosomes of bovine brain; conditions: for Ki: Table 3, tritiated dopamine, striatal synaptosomes of bovine brain
[3] = test system: 6-hydroxydopamine-lesioned rats (dopamine agonist activity); experiment: rat turning test (turning behavior contralateral to lesion in 6-hydroxydopamine-lesioned rats); format: in vivo; conditions: for Average Number of Turns/rat: first 15 minutes after end of latency period
Description: In this test, nigro-neostriatal-lesioned rats are employed, which are prepared by the procedure of Ungerstedt and Arbuthnott, Brain Res, 24, 485 (1970). A compound having dopamine agonist activity causes the rats to turn in circles contralateral to the side of the lesion. After a latency period, which varies from compound to compound, the number of turns is counted over a 15-minute period.
The compounds were dissolved in water and the aqueous solution injected into the rat by the intraperitoneal route.

prolactin [4] = experiment: inhibition of serum prolactin in reserpine-pretreated male rats; format: in vivo, rat (Sprague-Dawley); conditions: for inhibition at 0.05 mg/kg: Rattus norvegicus, ip, read-out: Percent Inhibition of Serum Prolactin
Description: Adult male rats of the Sprague-Dawley strain weighing about 200 g. were housed in an air-conditioned room with controlled lighting (lights on 6 a.m.-8 p.m.) and fed lab chow and water ad libitum. Each rat received an intraperitoneal injection of 2.0 mg. of reserpine in aqueous suspension 18 hours before administration of the ergoline derivative. The purpose of the reserpine was to keep prolactin levels uniformly elevated. The compounds under test were dissolved in 10 percent ethanol at a concentration of 10 mcg/ml. and were injected intraperitoneally at a standard dose of 50 mcg/kg. Each compound was administered to a group of 10 rats, and a control group of 10 intact males received an equivalent amount of 10 percent ethanol. One hour after treatment all rats were killed by decapitation, and 150 μl aliquots of serum were assayed for prolactin. The results were evaluated statistically using Student's "t" test to calculate the level of significance, "p", of the changes in prolactin level.
The difference between the prolactin level of the treated rats and prolactin level of the control rats, divided by the prolactin level of the control rats gives the percent inhibition of prolactin secretion attributable to the compounds of this invention. In the table, column 1 gives the name of the compound; column 2, the prolactin level for each group of rats; column 3, the percent prolactin inhibition; and column 4, the level of significance. The data were collected from three separate experiments, each with its own control, and Table 2 sets forth the results obtained by experiment.

prolactin [5] = experiment: as above; format: in vivo, rat (Sprague-Dawley); conditions: from dose response curves
serotonin = serotonin agonist activity
[6] = Experiment 3, 50 mcg/kg i.p., 1 hour, control 42.3 ± 7.3, P <0.001
[7] = Experiment 1, 50 mcg/kg i.p., 1 hour, control 30.4 ± 3.4, P <0.001 or <0.01

Q: Which “metabolism (in words)” value [1] does the source give for N[C@@H](Cc1ccc(O)c(O)c1)C(=O)O [1-dopa, 1-dihydroxyphenylalanine] here?
A: rapidly metabolized

Q: For CC(C)C[C@H]1C(=O)N2CCC[C@H]2[C@]2(O)O[C@](NC(=O)[C@@H]3C=C4c5cccc6[nH]c(Br)c(c56)C[C@H]4N(C)C3)(C(C)C)C(=O)N12 [2-bromo-α-ergokryptine], which “prolactin inhibitor activity (in words)” value (prolactin [2]) is on record?
A: activity as prolactin inhibitors

Q: And the “dopamine receptor stimulation (in words)” value (dopamine receptor)?
A: stimulate dopamine receptors

Q: And the “treatment of Parkinsonism (in words)” value (Parkinsonism)?
A: useful in the treatment of Parkinsonism

Q: For CCCN1C[C@H](CSC)C[C@@H]2c3cccc4[nH]c(Br)c(c34)C[C@H]21 [D-2-bromo-6-n-propyl-8β-methylmercaptomethylergoline], which Ki (dopamine receptors) is on record?
A: 3 nM

Q: What about the “% of Rats Exhibiting Turning Behavior” value ([3]; IP dose 1 mg/kg, Table I) of the same compound?
A: 100%

Q: And the “Duration of Effect” value ([3]; IP dose 1 mg/kg, Table I)?
A: 1 h

Q: What about the “Latency of Effect” value ([3]; IP dose 1 mg/kg, Table I) of the same compound?
A: 5 min

Q: What about the “Average Number of Turns/rat” value ([3]; IP dose 1 mg/kg, Table I) of the same compound?
A: 71 Turns/rat

Q: And the Serum Prolactin Level (prolactin [4]; [6])?
A: 4.6 ± 0.4 ng/mL

Q: And the inhibition at 0.05 mg/kg (prolactin [4]; 1 h)?
A: 89%

Q: For CSC[C@@H]1C[C@@H]2c3cccc4[nH]c(Cl)c(c34)C[C@H]2N(C)C1 [D-2-chloro-6-methyl-8β-methylmercaptomethylergoline mesylate, reference compound], which Ki (dopamine receptors) is on record?
A: 6 nM

Q: Which Ki (dopamine receptors) does the source give for C=CCN1C[C@H](CSC)C[C@@H]2c3cccc4[nH]cc(c34)C[C@H]21 [D-6-allyl-8β-methylmercaptomethylergoline] here?
A: 5 nM

Q: With CCN1C[C@H](CSC)C[C@@H]2c3cccc4[nH]cc(c34)C[C@H]21 [D-6-ethyl-8β-methylmercaptomethylergoline] as the compound, how does the Ki (dopamine receptors) read?
A: 3.5 nM

Q: What about the “% of Rats Exhibiting Turning Behavior” value ([3]; IP dose 1 mg/kg, Table I) of the same compound?
A: 100%

Q: And the “Duration of Effect” value ([3]; IP dose 1 mg/kg, Table I)?
A: ≥ 2 h

Q: What about the “Latency of Effect” value ([3]; IP dose 1 mg/kg, Table I) of the same compound?
A: 9 min

Q: What about the “Average Number of Turns/rat” value ([3]; IP dose 1 mg/kg, Table I) of the same compound?
A: 112 Turns/rat

Q: What about the Serum Prolactin Level (prolactin [4]; [6]) of the same compound?
A: 3.9 ± 0.4 ng/mL

Q: And the inhibition at 0.05 mg/kg (prolactin [4]; 1 h)?
A: 91%

Q: With CN1CC(CC#N)C[C@@H]2c3cccc4[nH]cc(c34)C[C@H]21 (stereo partly drawn) [D-6-methyl-8-cyanomethylergoline] as the compound, how does the “prolactin inhibitor activity (in words)” value (prolactin [2]) read?
A: activity as prolactin inhibitors

Q: For COC[C@@H]1C[C@@H]2c3cccc4[nH]cc(c34)C[C@H]2N(C)C1 [D-6-methyl-8β-methoxymethylergoline mesylate, reference compound], which Ki (dopamine receptors) is on record?
A: 75 nM

Q: With CSC[C@@H]1C=C2c3cccc4[nH]cc(c34)C[C@H]2N(C)C1 [D-6-methyl-8β-methylmercaptomethyl-9-ergolene, reference compound] as the compound, how does the Ki (dopamine receptors) read?
A: 6 nM

Q: Which Ki (dopamine receptors) does the source give for CSC[C@@H]1C[C@@H]2c3cccc4[nH]cc(c34)C[C@H]2N(C)C1 [D-6-methyl-8β-methylmercaptomethylergoline mesylate, reference compound] here?
A: 13 nM

Q: And the “% of Rats Exhibiting Turning Behavior” value ([3]; IP dose 1 mg/kg, Table I)?
A: 50%

Q: And the “Duration of Effect in Hours” value ([3]; IP dose 1 mg/kg, Table I)?
A: ~ 2 Hours

Q: What about the “Latency of Effect” value ([3]; IP dose 1 mg/kg, Table I) of the same compound?
A: 30 to 45 min

Q: What about the “Average Number of Turns/rat” value ([3]; IP dose 1 mg/kg, Table I) of the same compound?
A: 51 Turns/rat

Q: And the “Serum Prolactin Level” value (prolactin [4]; [7])?
A: 12.8

Q: And the inhibition at 0.05 mg/kg (prolactin [4]; 1 h)?
A: 58%

Q: For CCCN1CC(CSC)=C[C@@H]2c3cccc4[nH]cc(c34)C[C@H]21 [D-6-n-propyl-8-methylmercaptomethyl-8-ergolene], which Ki (dopamine receptors) is on record?
A: 2 nM

Q: And the “% of Rats Exhibiting Turning Behavior” value ([3]; IP dose 1 mg/kg, Table I)?
A: 100%

Q: And the “Duration of Effect” value ([3]; IP dose 1 mg/kg, Table I)?
A: 1 h

Q: And the “Latency of Effect” value ([3]; IP dose 1 mg/kg, Table I)?
A: 4 min

Q: What about the “Average Number of Turns/rat” value ([3]; IP dose 1 mg/kg, Table I) of the same compound?
A: 118 Turns/rat

Q: And the Serum Prolactin Level (prolactin [4]; [6])?
A: 3.9 ± 0.2 ng/mL

Q: And the inhibition at 0.05 mg/kg (prolactin [4]; 1 h)?
A: 91%

Q: With CCCN1C[C@H](COC)C[C@@H]2c3cccc4[nH]cc(c34)C[C@H]21 [D-6-n-propyl-8β-methoxymethylergoline methanesulfonate] as the compound, how does the Ki (dopamine receptors) read?
A: 10 nM

Q: And the “% of Rats Exhibiting Turning Behavior” value ([3]; IP dose 1 mg/kg, Table I)?
A: 100%

Q: And the “Duration of Effect” value ([3]; IP dose 1 mg/kg, Table I)?
A: ≥ 2 h

Q: And the “Latency of Effect” value ([3]; IP dose 1 mg/kg, Table I)?
A: 6 min

Q: And the “Average Number of Turns/rat” value ([3]; IP dose 1 mg/kg, Table I)?
A: 111 Turns/rat

Q: And the Serum Prolactin Level (prolactin [4]; Experiment 2, 50 mcg/kg i.p., 1 hour, control 55.2 ± 4.1, P <0.001)?
A: 2.4 ± 0.2 ng/mL

Q: And the inhibition at 0.05 mg/kg (prolactin [4]; 1 h)?
A: 96%

Q: What does the source list for CCCN1C[C@H](CSC)C=C2c3cccc4[nH]cc(c34)C[C@H]21 [D-6-n-propyl-8β-methylmercaptomethyl-9-ergolene]?
A: Ki (dopamine receptors): 2 nM; % of Rats Exhibiting Turning Behavior ([3]; IP dose 1 mg/kg, Table I): 100%; Duration of Effect ([3]; IP dose 1 mg/kg, Table I): ≥ 2 h; Latency of Effect ([3]; IP dose 1 mg/kg, Table I): 4 min; Average Number of Turns/rat ([3]; IP dose 1 mg/kg, Table I): 200 Turns/rat; Serum Prolactin Level (prolactin [4]; [6]): 8.1 ± 1.2; inhibition at 0.05 mg/kg (prolactin [4]; 1 h): 81%

Q: For CCCN1C[C@H](CSC)C[C@@H]2c3cccc4[nH]cc(c34)C[C@H]21 [D-6-n-propyl-8β-methylmercaptomethylergoline methanesulfonate], which “potency as a prolactin inhibitor relative to the corresponding D-6-methyl compound” value (prolactin [5]) is on record?
A: about 100 times

Q: What about the Ki (dopamine receptors) of the same compound?
A: 3 ± 1 nM

Q: And the “average turns per lesioned rat” value ([3]; 15-minute period after latency)?
A: 105 turns per lesioned rat

Q: And the “Duration of Effect” value ([3]; IP dose 1 mg/kg, Table I)?
A: ≥ 24 h

Q: What about the “Latency of Effect” value ([3]; IP dose 1 mg/kg, Table I) of the same compound?
A: 5 to 7 min

Q: What about the “Average Number of Turns/rat” value ([3]; IP dose 1 mg/kg, Table I) of the same compound?
A: 105 Turns/rat

Q: What about the “potency in the turning behavior test relative to the corresponding D-6-methyl derivative” value ([3]; from dose response curves, 6-hydroxydopamine-lesioned rats) of the same compound?
A: about 30 times

Q: What about the Serum Prolactin Level (prolactin [4]; [7]) of the same compound?
A: 1.6 ± 0.4 ng/mL

Q: And the inhibition at 0.05 mg/kg (prolactin [4]; Experiment 1, 50 mcg/kg i.p., 1 hour, P <0.001 (n-propyl), <0.01 (methyl))?
A: 95%

Q: With CCCN1C[C@H](CSC)C[C@@H]2c3cccc4[nH]cc(c34)C[C@H]21 [D-6-n-propyl-8β-methylmercaptomethylergoline] as the compound, how does the “serotonin activity (in words)” value (serotonin) read?
A: serotonin agonists rather than serotonin antagonists

Q: And the “inhibition of high affinity binding of tritiated dopamine (in words)” value (dopamine receptors; bovine striatal synaptosome membranes)?
A: extremely potent inhibitors

Q: What does the source list for CCCN1C[C@H](C[S+](C)[O-])C[C@@H]2c3cccc4[nH]cc(c34)C[C@H]21 (stereo partly drawn) [D-6-n-propyl-8β-methylsulfinylmethylergoline]?
A: % of Rats Exhibiting Turning Behavior ([3]; IP dose 1 mg/kg, Table I): 100%; Duration of Effect ([3]; IP dose 1 mg/kg, Table I): 1 h; Latency of Effect ([3]; IP dose 1 mg/kg, Table I): 7 min; Average Number of Turns/rat ([3]; IP dose 1 mg/kg, Table I): 65 Turns/rat; Serum Prolactin Level (prolactin [4]; [6]): 3.3 ng/mL; inhibition at 0.05 mg/kg (prolactin [4]; 1 h): 92%

Q: What does the source list for CC(C)[C@H]1C(=O)N2CCC[C@H]2[C@]2(O)O[C@](NC(=O)[C@@H]3C=C4c5cccc6[nH]cc(c56)C[C@H]4N(C)C3)(C(C)C)C(=O)N12 [Ergocornine]?
A: prolactin inhibitor activity (in words) (prolactin [2]): activity as prolactin inhibitors; dopamine receptor stimulation (in words) (dopamine receptor): direct dopamine receptor stimulants of long duration

Q: For CC(C)[C@H]1C(=O)N2CCC[C@H]2[C@]2(O)O[C@](NC(=O)[C@@H]3C[C@@H]4c5cccc6[nH]cc(c56)C[C@H]4N(C)C3)(C(C)C)C(=O)N12 [dihydroergocornine], which “prolactin inhibitor activity (in words)” value (prolactin [2]) is on record?
A: activity as prolactin inhibitors

Q: With CN1C[C@H](CC#N)C[C@@H]2c3cccc4[nH]c(Cl)c(c34)C[C@H]21 [lergotrile] as the compound, how does the “treatment of Parkinsonism (in words)” value (Parkinsonism) read?
A: useful in the treatment of Parkinsonism
